Experimental findings from article PMC12390684 (Viruses, 2025) are described below.

This assay deals with IN-GCN2 interaction (6xHis-IN / GST-GCN2) (UniProt P04585+Q9P2K8). The assay can be described thus: biochemical. The assay is classed as binding, HIV-1 IN; human GCN2. To be noted: screen, single dose 100 µM, single replicate; residual AlphaLISA signal normalized to DMSO control. (Alpha assays give light when donor and acceptor beads are brought close together.)
Sequence of IN-GCN2 interaction (6xHis-IN / GST-GCN2) (Q9P2K8 192-1024, other chains not shown): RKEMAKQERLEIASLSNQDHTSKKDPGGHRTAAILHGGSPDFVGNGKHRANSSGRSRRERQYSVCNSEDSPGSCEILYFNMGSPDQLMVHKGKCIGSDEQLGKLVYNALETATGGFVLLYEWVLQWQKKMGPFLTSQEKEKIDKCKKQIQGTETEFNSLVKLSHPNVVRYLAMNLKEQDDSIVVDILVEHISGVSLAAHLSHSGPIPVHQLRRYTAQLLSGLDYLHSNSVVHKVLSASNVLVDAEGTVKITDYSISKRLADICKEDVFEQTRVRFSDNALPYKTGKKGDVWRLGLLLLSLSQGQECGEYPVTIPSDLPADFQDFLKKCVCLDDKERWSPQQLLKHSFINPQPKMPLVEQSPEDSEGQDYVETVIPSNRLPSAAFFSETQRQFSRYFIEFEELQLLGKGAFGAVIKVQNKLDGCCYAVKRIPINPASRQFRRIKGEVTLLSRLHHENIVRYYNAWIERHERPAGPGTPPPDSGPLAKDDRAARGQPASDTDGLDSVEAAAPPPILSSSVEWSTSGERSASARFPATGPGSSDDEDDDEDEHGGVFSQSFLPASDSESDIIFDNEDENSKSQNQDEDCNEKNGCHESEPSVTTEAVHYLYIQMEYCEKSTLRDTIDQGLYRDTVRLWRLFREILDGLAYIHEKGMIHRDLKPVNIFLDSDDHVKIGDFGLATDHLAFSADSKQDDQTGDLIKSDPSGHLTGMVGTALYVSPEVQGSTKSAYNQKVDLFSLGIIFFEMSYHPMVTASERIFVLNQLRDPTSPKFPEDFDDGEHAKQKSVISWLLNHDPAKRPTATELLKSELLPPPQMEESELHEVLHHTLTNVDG
Turning to `C=C[C@H]1CN2CC[C@H]1C[C@H]2C(=O)c1ccnc2ccc(OC)cc12` [NSC15307], the “IN-GCN2 interaction (%)” value turned out to be 84.16%.

With `CC[C@H](C)[C@@H]([C@@H](CC(=O)N1CCC[C@H]1[C@H](OC)[C@@H](C)C(=O)N[C@@H](Cc1ccccc1)c1nccs1)OC)N(C)C(=O)[C@@H](NC(=O)[C@H](C(C)C)N(C)C)C(C)C` [NSC376128], the “IN-GCN2 interaction (%)” value came to 96.15%. With `COc1cc2c(c(O)c1OC)C[C@H]1c3c(c(OC)c4c(c3-2)OCO4)CCN1C` [NSC785163], the “IN-GCN2 interaction (%)” value is on record as 34.56%. For `COC(=O)c1ccc(O)c2nc3c(C=O)c(O)cc(O)c3nc12` [NSC106995] the value was 28.53%. For `CO[C@@H]1C[C@@H](C[C@H]2CC[C@H](C)[C@H]([C@@H](C)C(=O)[O-])O2)O[C@]2(O[C@](C)([C@H]3CC[C@@](C)([C@@H]4O[C@@H]([C@H]5O[C@@](O)(CO)[C@H](C)C[C@@H]5C)C[C@@H]4C)O3)C[C@H]2C)[C@@H]1C.[Na+]` [NSC292567], the “IN-GCN2 interaction (%)” value came out at 95.66%.

Turning to `CNC[C@H](O)c1ccc(O)c(O)c1` [NSC62786], the “IN-GCN2 interaction (%)” value is 108.20%.

In the case of `COc1cc2c(cc1OC)C(O)C(O)(CO)C(C(=O)O)C2c1cc(OC)c(OC)c(OC)c1` (stereo not drawn) [NSC50131], the “IN-GCN2 interaction (%)” value is 78.06%. Regarding `CC(=O)O[C@H]1C[C@]2(O)[C@@H]3CC[C@@H]4C[C@@H](O)CC[C@]4(C)[C@H]3CC[C@]2(C)[C@H]1C1=CC(=O)OC1` [NSC148790], the “IN-GCN2 interaction (%)” value stood at 114.66%. To `Oc1ccc(Cc2nccc3cc(O)c(O)cc23)cc1O` [NSC99799] belongs 58.53%; to `C[C@]12CC[C@H]3[C@@H](CC[C@]4(O)C[C@@H](O)CC[C@]34/C=N/O)[C@@]1(O)CC[C@@H]2C1=COC(=O)C1` [NSC93373], 116.21%; to `COC(=O)CC[C@@H](C)[C@H]1CC[C@@]2(C)[C@@H]3C(=O)C[C@H]4C(C)(C)[C@@H](OC(C)=O)CC[C@]4(C)[C@H]3C(=O)C[C@]12C` [NSC34202], 97.47%.

As to `C=C(C)[C@H]1Cc2c(ccc3c2O[C@@H]2COc4cc(OC)c(OC)cc4[C@@H]2C3=O)O1` [NSC26258], the “IN-GCN2 interaction (%)” value worked out at 55.12%. For the molecule `COc1c(O)ccc2c1-c1c3c(cc4c1[C@H](C2)NCC4)OCO3` [NSC785148], the “IN-GCN2 interaction (%)” value stood at 69.85%. For `CCCCCc1cc(O)cc2c1Oc1cc(O)cc(C(=O)CCCC)c1C(=O)O2` [NSC31867] the value was 101.08%; for `CC1C(=O)OC2CCN3CC4OC4(COC(=O)C(C)(O)C1(C)O)C23` (stereo not drawn) [NSC113087], 97.53%. On to `O=c1c(O)cccc2cc(O)c(O)c(O)c12` [NSC35676], for which the “IN-GCN2 interaction (%)” value worked out at 61.12%. To `COC1C(C)OC(OC2CC(C)(O)Cc3cc4c(c(O)c32)C(=O)c2c(O)cc3c(c2C4=O)OC2OC3(C)C(O)C(N(C)C)C2O)C(OC)C1(C)OC` (stereo not drawn) [NSC265450] belongs 99.51%; to `c1cc2c(c3c1C[C@@H]1NCCc4cc5c(c-3c41)OCO5)OCO2` [NSC785157], 72.19%; to `N#C[C@H](O[C@@H]1O[C@H](CO[C@@H]2O[C@H](CO)[C@@H](O)[C@H](O)[C@H]2O)[C@@H](O)[C@H](O)[C@H]1O)c1ccccc1` [NSC15780], 121.81%. Take `CN1CC(=O)NC1=N` [NSC13123]: the “IN-GCN2 interaction (%)” value is on record as 106.95%. As for `COc1cc(/C=N\O)nc(-c2ccccn2)c1` [NSC114341], the “IN-GCN2 interaction (%)” value was 45.21%. For `C1CCC(NC2CCCCC2)CC1.COC1C(OC(=O)/C=C/C=C/C=C/C=C/C(=O)O)CCC2(CO2)C1C1(C)OC1CC=C(C)C` (stereo not drawn) [NSC58368] the value was 95.05%.

For the molecule `O=C1N[C@@H]2C(=C[C@H](O)[C@@H](O)[C@H]2O)c2cc3c(c(O)c21)OCO3` [NSC266535], the “IN-GCN2 interaction (%)” value was determined as 138.97%. `C[C@H]1O[C@@H](c2ccc3c(c2O)C(=O)C2=C(C3=O)[C@@]3(O)C(=O)C[C@](C)(O)C[C@@]3(O)C=C2)C[C@@H](O)[C@@H]1O` [NSC184398]: the “IN-GCN2 interaction (%)” value is listed as 10.15%.
